{"source": "patent US11622984B2", "about": "“Composition comprising aster sphathulifolius maxim extract for preventing, improving, or treating muscular diseases or for improving muscular functions” (NEWTREE CO., LTD., priority 2018, dated 2023)", "assay_type_in_all_cases": "in vivo, C57BL/6 mice", "key": {"p-mTOR": {"tested_on": "p-mTOR", "assay": "Western blot protein expression in gastrocnemius of muscle atrophy mouse model", "details": "370 mg/kg oral, 14 days", "protocol": "An animal experiment was conducted to confirm whether an Aster spathulifolius extract improved muscle atrophy in a muscle atrophy mouse model. Five-week-old male C57BL/6 mice were adapted to an animal laboratory environment for one week, and then divided into five groups according to an experimental condition, and immobilization of the legs to induce muscle atrophy and oral administration of samples were performed for two weeks. Specifically, experimental groups were divided into an untreated control group (normal group, Cont), a muscle atrophy induced group (induction group, IM), a positive control group (HMB administered group, HMB 370) induced with muscle atrophy and administered with beta-hydroxy beta-methylbutyrate (HMB) (370 mg/kg), a group (Aster spathulifolius low-dose administered group, AS 100) induced with muscle atrophy and administered with a low dose (100 mg/kg) of Aster spathulifolius extract, and a group (Aster spathulifolius high-dose administered group, AS 200) induced with muscle atrophy and administered with a high dose (200 mg/kg) of Aster spathulifolius extract. […] After 2 weeks of leg fixation and oral administration of the sample, the gastrocnemius and the quadriceps of one hind leg were extracted, and the weights thereof were measured, normalized in proportion to the body weight, and then compared and shown in FIG. 1. […]"}, "atrogin-1": {"tested_on": "atrogin-1", "assay": "qRT-PCR mRNA expression in gastrocnemius of muscle atrophy mouse model", "details": "370 mg/kg oral, 14 days, induction group about three times", "protocol": "(§1) An animal experiment was conducted to confirm whether an Aster spathulifolius extract improved muscle atrophy in a muscle atrophy mouse model. Five-week-old male C57BL/6 mice were adapted to an animal laboratory environment for one week, and then divided into five groups according to an experimental condition, and immobilization of the legs to induce muscle atrophy and oral administration of samples were performed for two weeks. […] After 2 weeks of leg fixation and oral administration of the sample, the gastrocnemius and the quadriceps of one hind leg were extracted, and the weights thereof were measured, normalized in proportion to the body weight, and then compared and shown in FIG. 1. […]\n(§2) To confirm whether the Aster spathulifolius extract improved the mRNA expression levels of muscle atrophy-related factors, muscle ring finger-1 (MuRF-1) and Atrogin-1, in a muscle atrophy mouse model, quantitative real-time PCR (qRT-PCR) was performed. […]"}, "murf-1": {"tested_on": "murf-1", "assay": "qRT-PCR mRNA expression in gastrocnemius of muscle atrophy mouse model", "details": "370 mg/kg oral, 14 days, induction group about 3 times", "protocol": "as §1, §2"}, "[1]": {"tested_on": "muscle atrophy mouse model", "assay": "Cross-sectional area of muscle fibers (H&E staining, image J) in muscle atrophy mouse model", "details": "370 mg/kg oral, 14 days", "protocol": "(§3) An animal experiment was conducted to confirm whether an Aster spathulifolius extract improved muscle atrophy in a muscle atrophy mouse model. Five-week-old male C57BL/6 mice were adapted to an animal laboratory environment for one week, and then divided into five groups according to an experimental condition, and immobilization of the legs to induce muscle atrophy and oral administration of samples were performed for two weeks. Specifically, experimental groups were divided into an untreated control group (normal group, Cont), a muscle atrophy induced group (induction group, IM), a positive control group (HMB administered group, HMB 370) induced with muscle atrophy and administered with beta-hydroxy beta-methylbutyrate (HMB) (370 mg/kg), a group (Aster spathulifolius low-dose administered group, AS 100) induced with muscle atrophy and administered with a low dose (100 mg/kg) of Aster spathulifolius extract, and a group (Aster spathulifolius high-dose administered group, AS 200) induced with muscle atrophy and administered with a high dose (200 mg/kg) of Aster spathulifolius extract. Immobilization of the legs was performed by applying a fixing tool manufactured by using a 1.5 ml microfuge tube, clips, and a Velcro tape as shown in References (Disease models & mechanisms, 8(9), 1059-1069, 2015) to one hind leg of the mouse. All samples were dissolved in 0.5% carboxymethylcellulose (CMC) and orally administered once a day for 14 days from a day of application of leg fixation. After 2 weeks of leg fixation and oral administration of the sample, the gastrocnemius and the quadriceps of one hind leg were extracted, and the weights thereof were measured, normalized in proportion to the body weight, and then compared and shown in FIG. 1. As a result, compared to the normal group (Cont), the induction group (IM) induced muscle atrophy, resulting in a weight loss of about 40% in the gastrocnemius and about 33% in the quadriceps in proportion to the body weight. In the HMB-administered group (HMB 370), as the positive control group, the gastrocnemius decreased by about 24% and the quadriceps decreased by about 17%, showing about 16% and 16% of a muscle atrophy protective ability, respectively. On the other hand, in the low-dose group of Aster spathulifolius (AS 100), the gastrocnemius decreased by about 27% and the quadriceps decreased by about 22%. In the high-dose group of Aster spathulifolius (AS 200), the gastrocnemius decreased by about 25% and the quadriceps decreased by about 18%.\nHistological analysis was conducted to confirm whether an Aster spathulifolius extract improved the reduction in cross-sectional area of muscle fibers in a muscle atrophy mouse model. The gastrocnemius and quadriceps tissues extracted in Example 2 above were fixed with 4% paraformaldehyde and then subjected to hematoxylin and eosin staining (H&E staining), and thereafter, the cross-sectional area of the dyed muscle fibers was quantified through image J software, and the results were shown in FIGS. 2 and 3."}, "[2]": {"tested_on": "muscle atrophy mouse model", "assay": "Muscle tissue weight in leg-immobilization muscle atrophy mouse model", "protocol": "as §3"}}, "data": [{"smiles": "CC(C)(O)CC(=O)O", "note": "[HMB, beta-hydroxy beta-methylbutyrate]", "values": [{"measurement": "p-mTOR protein expression", "setting": "p-mTOR", "value": "large increase"}, {"measurement": "atrogin-1 gene expression relative to normal group", "setting": "atrogin-1", "value": "about 1.3 times"}, {"measurement": "murf-1 gene expression relative to normal group", "setting": "murf-1", "value": "about 1.7 times"}, {"measurement": "protective ability against the cross-sectional area of muscle fibers, gastrocnemius", "setting": "[1]", "value": 17, "unit": "%"}, {"measurement": "protective ability against the cross-sectional area of muscle fibers, quadriceps", "setting": "[1]", "value": 19, "unit": "%"}, {"measurement": "reduction in muscle fiber size (H&E staining)", "setting": "[1]; both muscle tissues", "value": "the reduction in muscle fiber size was alleviated"}, {"measurement": "decrease of cross-sectional area of muscle fiber vs normal group, quadriceps", "setting": "[1]; induction group about 47%", "value": "about 28%"}, {"measurement": "decrease of cross-sectional area of muscle fiber vs normal group, gastrocnemius", "setting": "[1]; induction group about 50%", "value": "about 33%"}, {"measurement": "quadriceps weight decrease in proportion to body weight vs normal group", "setting": "[2]; 370 mg/kg oral once a day, 14 days leg fixation, induction group about 33%", "value": "about 17%"}, {"measurement": "gastrocnemius weight decrease in proportion to body weight vs normal group", "setting": "[2]; 370 mg/kg oral once a day, 14 days leg fixation, induction group about 40%", "value": "about 24%"}, {"measurement": "muscle atrophy protective ability (muscle weight), gastrocnemius", "setting": "[2]; 370 mg/kg oral, 14 days", "value": "about 16%"}, {"measurement": "muscle atrophy protective ability (muscle weight), quadriceps", "setting": "[2]; 370 mg/kg oral, 14 days", "value": "about 16%"}]}]}
